In patent US9174995B2, “Pyrrolotriazinone derivatives” (Merck Patent GmbH, priority 2012, dated 2015):

What was measured:
[1] = target: T1, GST-tagged Tankyrase-1 (1023-1327 aa) (Homo sapiens, UniProt O95271); assay: Tankyrase 1 autoparsylation assay (HTRF enzyme assay); assay type: biochemical
T1 construct: GST-tagged Tankyrase-1 (1023-1327 aa)
Protocol: (§1) Biochemical Activity Testing of Tankyrase 1 and 2: Autoparsylation Assay
(§2) The autoparsylation assay is run in two steps: the enzymatic reaction in which GST-tagged Tankyrase-1, resp Tankyrase-2 transferred biotinylated ADP-ribose to itself from biotinylated NAD as co-substrate and the detection reaction where a time resolved FRET between cryptate labelled anti-GST bound to the GST tag of the enzyme and Xlent® labelled-streptavidin bound the biotin-parsylation residue is analysed. The autoparsylation activity was detectable directly via the increase in HTRF signal.
(§3) The autoparsylation assay is performed as 384-well HTRF® (Cisbio, Codolet, France) assay format in Greiner low volume nb 384-well microtiter plates and is used for high throughput screen. 250 nM GST-tagged Tankyrase-1 (1023-1327 aa), respectively about 250 nM GST-tagged Tankyrase-2 (873-1166 aa) and 5 μM bio-NAD (Biolog, Life science Inst., Bremen, Germany) as co-substrate are incubated in a total volume of 5 μl (50 mM HEPES, 4 mM Mg-chloride, 0.05% Pluronic F-68, 1.4 mM DTT, 0.5% DMSO, pH 7.7) in the absence or presence of the test compound (10 dilution concentrations) for 90 min at 30° C. The reaction is stopped by the addition of 1 μl 50 mM EDTA solution. 2 μl of the detection solution (1.6 μM SA-Xlent® (Cisbio, Codolet, France), 7.4 nM Anti-GST-K® (Eu-labelled anti-GST, Cisbio, Codolet, France) in 50 mM HEPES, 800 mM KF, 0.1% BSA, 20 mM EDTA, 0.1% CHAPS, pH 7.0) are added. After 1 h incubation at room temperature the HTRF is measured with an Envision multimode reader (Perkin Elmer LAS Germany GmbH) at excitation wavelength 340 nm (laser mode) and emission wavelengths 615 nm and 665 nm. The ratio of the emission signals is determined. The full value used is the inhibitor-free reaction. The pharmacological zero value used is XAV-939 (Tocris) in a final concentration of 5 μM. The inhibitory values (IC50) are determined using either the program Symyx Assay Explorer® or Condosseo® from GeneData.

[2] = test system: Tankyrases; assay: Cellular inhibition of Tankyrase: increase of Axin2 level in DLD1 cells (Luminex); assay type: cell-based; conditions: 24 hours, read-out: EC50 tankyrase ½ (cell assay)
Protocol: Measurement of Cellular Inhibition of Tankyrase
Since Tankyrases have been described to modulate cellular level of Axin2 (Huang et al., 2009; Nature) the increase of Axin2 level is used as readout for determination of cellular inhibition of Tankyrases in a Luminex based assay.
Cells of the colon carcinoma cell line DLD1 are plated in 96 well plates with 1.5×10^4 cells per well. Next day, cells are treated with a serial dilution of test compound in seven steps as triplicates with a final DMSO concentration of 0.3%. After 24 hours, cells are lysed in lysis buffer (20 mM Tris/HCl pH 8.0, 150 mM NaCl, 1% NP40, 10% Glycerol) and lysates are cleared by centrifugation through a 96 well filter plate (0.65 μm). Axin2 protein is isolated from cell lysates by incubation with a monoclonal anti-Axin2 antibody (R&D Systems #MAB6078) that is bound to fluorescent carboxybeads. Then, bound Axin2 is specifically detected with a polyclonal anti-Axin2 antibody (Cell Signaling #2151) and an appropriate PE-fluorescent secondary antibody. The amount of isolated Axin2 protein is determined in a Luminex^200 machine (Luminex Corporation) according to the manufacturer's instruction by counting 100 events per well. Inhibition of Tankyrase by test compounds results in higher levels of Axin2 which directly correlates with an increase of detectable fluorescence. As controls cells are treated with solvent alone (neutral control) and with a Tankyrase reference inhibitor IWR-2 (3E-06 M) which refers as control for maximum increase of Axin2. For analysis, the obtained data are normalized against the untreated solvent control and fitted for determination of the EC50 values using the Assay Explorer software (Accelrys).

[3] = target: T2, GST-tagged Tankyrase-2 (873-1166 aa) (Homo sapiens, UniProt Q9H2K2); assay: Tankyrase 2 autoparsylation assay (HTRF enzyme assay); assay type: biochemical
T2 construct: GST-tagged Tankyrase-2 (873-1166 aa)
Protocol: as §1, §2, §3

[4] = target: T3, GST-tagged Tnks-2 (873-1166 aa) (Homo sapiens, UniProt Q9H2K2); assay: TNKS2 activity ELISA (autoparsylation assay); assay type: biochemical
T3 construct: GST-tagged Tnks-2 (873-1166 aa, prepared in-house); made in house
Protocol: (§4) Description of the TNKS1 and TNKS2 ELISA Assay
(§5) Biochemical Activity Testing of TNKS 1 and 2: Activity ELISA (Autoparsylation Assay)
(§6) For analysis of autoparsylation activity of TNKS 1 and 2 an activity ELISA is performed: In the first step GST tagged TNKS is captured on a Glutathione coated plate. Then the activity assay with biotinylated NAD is performed in the absence/presence of the compounds. During the enzymatic reaction GST tagged TNKS transfers biotinylated ADP-ribose to itself from biotinylated NAD as co-substrate. For the detection streptavidin-HRP conjugate is added that binds to the biotinylated TNKS and is thereby captured to the plates. The amount of biotinylated resp. autoparsylated TNKS is detected with a luminescence substrate for HRP. The level of the luminescence signal correlats directly with the amount of autoparsylated TNKS and therefore with activity of TNKS.
(§7) The activity ELISA is performed in 384 well Glutathione coated microtiter plates (Express capture Glutathione coated plate, Biocat, Heidelberg, Germany). The plates are pre-equilibrated with PBS. Then the plates are incubated with 50 μl 20 ng/well GST-tagged Tnks-1 (1023-1327 aa, prepared in-house), respectively GST-tagged Tnks-2 (873-1166 aa, prepared in-house) in assay buffer (50 mM HEPES, 4 mM Mg-chloride, 0.05% Pluronic F-68, 2 mM DTT, pH 7.7) overnight at 4° C. The plates are washed 3 times with PBS-Tween-20. The wells are blocked by incubation at room temperature for 20 minutes with 50 μl blocking buffer (PBS, 0.05% Tween-20, 0.5% BSA). Afterwards the plates are washed 3 times with PBS-Tween-20. The enzymatic reaction is performed in 50 μl reaction solution (50 mM HEPES, 4 mM Mg-chloride, 0.05% Pluronic F-68, 1.4 mM DTT, 0.5% DMSO, pH 7.7) with 10 μM bio-NAD (Biolog, Life science Inst., Bremen, Germany) as co-substrate in the absence or presence of the test compound (10 dilution concentrations) for 1 hour at 30° C. The reaction is stopped by 3 times washing with PBS-Tween-20. For the detection 50 μl of 20 ng/μl Streptavidin, HRP conjugate (MoBiTec, Göttingen, Germany) in PBS/0.05%Tween-20/0.01%BSA are added and the plates are incubated for 30 minutes at room temperature. After three times washing with PBS-Tween-20 50 μl of SuperSignal ELISA Femto Maximum sensitivity substrate solution (ThermoFisherScientific (Pierce), Bonn, Germany) are added. Following a 1 minute incubation at room temperature luminescence signals are measured with an Envision multimode reader (Perkin Elmer LAS Germany GmbH) at 700 nm. The full value used is the inhibitor-free reaction. The pharmacological zero value used is XAV-939 (Tocris) in a final concentration of 5 μM. The inhibitory values (IC50) are determined using either the program Symyx Assay Explorer® or Condosseo® from GeneData.

[5] = target: T4, GST-tagged Tnks-1 (1023-1327 aa) (Homo sapiens, UniProt O95271); assay: TNKS1 activity ELISA (autoparsylation assay); assay type: biochemical
T4 construct: GST-tagged Tnks-1 (1023-1327 aa, prepared in-house); made in house
Protocol: as §4, §5, §6, §7

[6] = test system: DLD-1-cancer cells; conditions: cited from earlier work

T2 sequence (Q9H2K2 873-1166): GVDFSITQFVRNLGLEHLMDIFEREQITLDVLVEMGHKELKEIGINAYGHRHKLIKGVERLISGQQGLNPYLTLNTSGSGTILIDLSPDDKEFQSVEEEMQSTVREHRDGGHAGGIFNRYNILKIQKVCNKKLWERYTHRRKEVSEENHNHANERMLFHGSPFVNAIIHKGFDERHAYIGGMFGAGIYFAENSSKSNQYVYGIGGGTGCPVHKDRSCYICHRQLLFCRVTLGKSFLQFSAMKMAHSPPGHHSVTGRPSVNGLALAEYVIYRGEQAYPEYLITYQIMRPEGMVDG
T1 sequence (O95271 1023-1327): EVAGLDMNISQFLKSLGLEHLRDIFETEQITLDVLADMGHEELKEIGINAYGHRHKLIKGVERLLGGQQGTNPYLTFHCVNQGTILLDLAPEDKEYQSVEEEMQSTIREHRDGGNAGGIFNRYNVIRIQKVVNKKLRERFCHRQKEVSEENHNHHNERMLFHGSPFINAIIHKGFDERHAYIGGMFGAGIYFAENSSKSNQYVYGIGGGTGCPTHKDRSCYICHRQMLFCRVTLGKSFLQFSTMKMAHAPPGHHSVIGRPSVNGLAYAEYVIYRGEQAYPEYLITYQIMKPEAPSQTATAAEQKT
T3 sequence (Q9H2K2 873-1166): as the sequence (Q9H2K2 873-1166) above
T4 sequence (O95271 1023-1327): as the sequence (O95271 1023-1327) above

Row | SMILES | IC50 [1] | EC50 [2] | IC50 [3] | IC50 [4] | IC50 [5] | growth of DLD-1-cancer cells [6]
1 | COC(=O)c1ccc(-c2nn3cccc3c(=O)[nH]2)cc1 [Compound A2, 4-(4-oxo-3,4-dihydro-pyrrolo[2,1-f][1,2,4]triazin-2-yl)-benzoic acid methyl ester] | < 300 nM | 300 to 3000 nM | < 300 nM | – | – | –
2 | Cc1cc2c(=O)[nH]c(-c3ccc(C(C)(C)O)cc3)nn2n1 [Compound A17, 6-[4-(1-hydroxy-1-methyl-ethyl)-phenyl]-2-methyl-5H-1,5,7,7a-tetraaza-inden-4-one] | 300 to 3000 nM | 3000 to 50000 nM | 300 to 3000 nM | 300 to 3000 nM | 300 to 3000 nM | –
3 | Oc1nc(-c2ccc(C(F)(F)F)cc2)nc2c1CSCC2 [XAV939] | – | – | – | – | – | inhibits growth
4 | CC(C)(C)c1ccc(-c2nn3cccc3c(=O)[nH]2)cc1 [Compound A3, 2-(4-tert-butyl-phenyl)-3H-pyrrolo[2,1-f][1,2,4]triazin-4-one] | < 300 nM | 300 to 3000 nM | 300 to 3000 nM | – | – | –
5 | Cc1ccc2c(=O)[nH]c(-c3ccc(C(C)(C)O)cc3)nn12 [Compound A19, 2-[4-(1-hydroxy-1-methyl-ethyl)-phenyl]-7-methyl-3H-pyrrolo[2,1-f][1,2,4]triazin-4-one] | < 300 nM | < 300 nM | < 300 nM | – | – | –
6 | Cc1ccc(-c2nn3cccc3c(=O)[nH]2)cc1 [Compound A1, 2-p-tolyl-3H-pyrrolo[2,1-f][1,2,4]triazin-4-one] | < 300 nM | – | < 300 nM | < 300 nM | < 300 nM | –
7 | CC(C)(O)c1ccc(-c2nn3c(C(F)(F)F)ccc3c(=O)[nH]2)cc1 [Compound A20, 2-[4-(1-hydroxy-1-methyl-ethyl)-phenyl]-7-trifluoromethyl-3H-pyrrolo[2,1-f][1,2,4]triazin-4-one] | 300 to 3000 nM | – | 3000 to 50000 nM | – | – | –
8 | CC(C)(N)c1ccc(-c2nn3cccc3c(=O)[nH]2)cc1 [Compound A16, 2-[4-(1-amino-1-methyl-ethyl)-phenyl]-3H-pyrrolo[2,1-f][1,2,4]-triazin-4-one] | 300 to 3000 nM | – | 300 to 3000 nM | – | – | –
9 | O=c1[nH]c(-c2ccc(Br)cc2)nn2cccc12 [Compound A6, 2-(4-bromo-phenyl)-3H-pyrrolo[2,1-f][1,2,4]triazin-4-one] | < 300 nM | – | < 300 nM | – | – | –
